Results reported in patent EP4729529A1, “PREPARATION OF PEPTIDE INHIBITOR OF INTERLEUKIN-23 RECEPTOR AND USE THEREOF” (Xizang Haisco Pharmaceutical Co., Ltd., priority 2023, dated 2024).
Positions of bridges follow the written chain, without caps; N, C: chain ends. Non-standard residues stand in square brackets, D forms with d. Residues, ends and D or L forms follow the SMILES beside them. Phe(4-OC2H4NH2,2,3-(CH2)3) = NCCOc1ccc(C[C@H](N)C(=O)O)c2c1CCC2; Trp(7-Me) = Cc1cccc2c(C[C@H](N)C(=O)O)c[nH]c12; 2Nal = N[C@@H](Cc1ccc2ccccc2c1)C(=O)O; 3Pal = N[C@@H](Cc1cccnc1)C(=O)O; Pen = CC(C)(S)[C@H](N)C(=O)O; Thp = NC1(C(=O)O)CCOCC1; Sar = CNCC(=O)O

Key:
[1] = Test of stability in plasma, monkey; assay type: in vitro ADME; conditions: read-out: Residual rate% at 37°C for 6 h
Method: (§1) 5. Test of stability in plasma
(§2) In this experiment, plasmas of five species, including human, monkey, dog, rat, and mouse, were used to evaluate the stability in plasma of Compound 7.
(§3) A plasma sample was prepared at a concentration level of 1000 ng/mL, and dispensed into EP tubes at time points 0 h and 6 h. Acetonitrile solution containing an internal standard was added directly to the 0 h sample; and the 6 h sample was placed at 37°C for the corresponding time, and then added with an acetonitrile solution containing internal standard. The concentration of the test compound in the sample was measured by the LC-MS/MS method, and the residual rate was calculated from the ratio of the peak areas of the test compound to the internal standard in the time point sample and the 0 h sample.
(§4) Experimental results: At the concentration level of 1000 ng/mL under the test conditions, the residual rates of the test Compounds were shown in Table 6 below. Table 6. Residual rate% at 37°C for 6 h

[2] = Pharmacokinetic test in mice (intravenous and intragastric, plasma LC-MS/MS); assay type: in vivo; conditions: male, mouse, Balb/c mice
Method: 4. Pharmacokinetic test in mice
4.1. Experimental animals: Male Balb/c mice (20-25 g, 18 mice/compound) were purchased from Chengdu Dossy Experimental Animals Co., Ltd.
4.2. Experimental design: On the day of the experiment, the Balb/c mice were randomly grouped by body weight. The animals were fasted with water available for 12-14 h one day before the administration, and were fed 4 h after the administration. Table 4. Administration information
Before and after administration, 0.06 mL of blood was taken from the orbit under isoflurane anaesthesia, and placed in an EDTAK2 centrifuge tube. The tube was centrifuged at 5000 rpm at 4°C for 10 min, and plasma was collected. The blood collection time points for the intravenous group and intragastric group were both 0 min, 5 min, 15 min, 30 min, 1 h, 2 h, 4 h, 6 h, 8 h, and 24 h. Before analysis and detection, all samples were stored at -80°C, and the samples were quantitatively analysed by LC-MS/MS. Table 5. Pharmacokinetic parameters of test compounds in mouse plasma

[3] = Test of stability in plasma, human; assay type: in vitro ADME; conditions: read-out: Residual rate% at 37°C for 6 h
Method: as §1, §2, §3, §4

[4] = Test of stability in plasma, dog; assay type: in vitro ADME; conditions: read-out: Residual rate% at 37°C for 6 h
Method: as §1, §2, §3, §4

IL-23R = target: T1, IL-23R (Homo sapiens, UniProt Q5VWK5); test: IL-23R reporter gene assay (HEK-blue IL23 reporter gene cell line, rhIL23 stimulation); assay type: cell-based; conditions: Inhibition of IL-23R, rhIL23 1 ng/mL, 24 hours
T1 construct: host or cells: HEK-blue IL23 reporter gene cell line
T1 sequence (Q5VWK5 24-629): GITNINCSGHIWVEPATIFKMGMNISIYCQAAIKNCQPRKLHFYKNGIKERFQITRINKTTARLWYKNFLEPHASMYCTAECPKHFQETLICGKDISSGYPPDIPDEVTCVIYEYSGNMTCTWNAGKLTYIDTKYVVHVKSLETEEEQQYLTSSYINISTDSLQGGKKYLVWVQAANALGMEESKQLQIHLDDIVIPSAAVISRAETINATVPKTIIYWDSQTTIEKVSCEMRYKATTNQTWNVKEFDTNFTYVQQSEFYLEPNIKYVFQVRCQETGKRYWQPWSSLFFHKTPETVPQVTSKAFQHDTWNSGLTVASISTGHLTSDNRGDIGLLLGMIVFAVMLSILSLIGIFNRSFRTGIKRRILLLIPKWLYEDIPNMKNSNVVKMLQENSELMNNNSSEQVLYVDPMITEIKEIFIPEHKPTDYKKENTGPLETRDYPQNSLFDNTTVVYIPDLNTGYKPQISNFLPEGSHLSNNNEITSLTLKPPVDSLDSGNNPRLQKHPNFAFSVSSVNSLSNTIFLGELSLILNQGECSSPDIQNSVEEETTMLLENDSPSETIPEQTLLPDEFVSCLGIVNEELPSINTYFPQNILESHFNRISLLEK
Method: 2. IL-23R reporter gene assay
The purpose of this assay was to assess the ability of compounds to inhibit the binding of IL23p19 to IL23R in a reporter gene system. The HEK-blue IL23 reporter gene cell line (Invivogen, hkb-il23) was cultured in DMEM + 10% FBS + 100 ug/mL Normocin medium. When the cell density reached 80%-90%, 5000 cells/well were plated into a 384-well plate, and the plate was incubated overnight at 37°C with 5% CO2. Then, the compound stock solution was diluted in DMSO, and 40 nL of the dilution was transferred into the 384-well culture plate by Echo. The plate was incubated at 37°C with 5% CO2 for 0.5 hours. 40 nL/well of rhIL23 (R&D, 1290-IL) was added to the 384-well cell culture plate at a final concentration of 1 ng/mL, and the plate was incubated at 37°C with 5% CO2 for 24 hours. 18 µL of Quanti-Blue™ solution was added to a new 384-well plate. 2 µL/well of cell culture supernatant was transferred into the 384-well plate prepared in Step 6, and the plate was incubated at 37°C with 5% CO2 for 1 hour. Absorbance values at […] were read on BMG. The binding ability of the compounds was assessed using the following formula, and IC50 values were obtained by fitting with Graphpad.
Calculation formula of inhibition rate: [formula] • where Data negative: mean of DMSO control group; and • Data positive: mean of non-IL23-stimulated group
The calculation formula of IC50 was as follows: Y = Bottom + (Top−Bottom)/(1+10^(∧)((LogIC50−X)*HillSlope)) [formula] • where X: concentration of compound; and • Y: inhibition rate of compound Table 2. Inhibition of IL-23R by test compounds

[5] = Test of stability in gastrointestinal fluid: simulated gastric fluid (pepsin); assay type: in vitro ADME; conditions: 0.5 mg/ml, 37°C
Method: 6. Test of stability in gastrointestinal fluid
1.1. Preparation of dilute hydrochloric acid: 23.4 ml of hydrochloric acid was diluted with water to 1000 ml.
1.2. Preparation of simulated gastric fluid: 1.64 ml of dilute hydrochloric acid and 1 g of pepsin were added to about 80 ml of water. After being shaken well, the mixture was diluted with water to 100 ml.
About 12.5 mg of the sample was added to a 25 ml volumetric flask and dissolved in the simulated gastric fluid (or simulated intestinal fluid), and the mixture was diluted to the mark.
Instrument model: Agilent 1260 Infinity; mobile phase A: 10 mmol/L K2HPO4, and mobile phase B: acetonitrile; column: Phenomenex Gemini^@ 3 um C18 110Å 150 * 4.6 mm; wavelength: 224 nm; column temperature: 30°C; sample tray temperature: 37°C; injection time: 35 min; injection volume: 10 ul; injection mode: gradient injection; and gradient method. Table 7. Gradient mobile phase
Sampling and testing: Firstly, the blank solution (simulated gastric fluid or simulated intestinal fluid) was tested. Then, the prepared sample (newly prepared for use) was placed in the injection tray for immediate injection. Then, a needle of sample was injected at 4.5 h, 9.5 h, and 18 h, respectively.
Table 8. Stability in gastrointestinal fluid

SMILES: CC(=O)NCCCC[C@@H]1NC(=O)[C@H](Cc2c[nH]c3c(C)cccc23)NC(=O)[C@H]([C@@H](C)O)NC(=O)[C@H](Cc2c[nH]cn2)NC(=O)[C@@H](NC(C)=O)C(C)(C)SSC(C)(C)[C@@H](C(=O)N[C@@H](Cc2ccc(OCCN)c3c2CCC3)C(=O)N[C@@H](Cc2ccc3ccccc3c2)C(=O)NC2(C(=O)N[C@@H](CCC(=O)O)C(=O)N[C@@H](CC(N)=O)C(=O)N[C@@H](Cc3cccnc3)C(=O)N(C)CC(N)=O)CCOCC2)NC1=O [Compound 7] (Ac-[Pen]HT[Trp(7-Me)]K(Ac)[Pen][Phe(4-OC2H4NH2,2,3-(CH2)3)][2Nal][Thp]EN[3Pal][Sar]-NH2; disulfide 1-6)
- remaining at 6 h, 1000 ng/mL [1]: > 99%
- AUC(0-t) ([2]; iv, i.v. (1 mg/kg)): 4.72 ± 0.512 µg·h/mL
- clearance ([2]; iv, i.v. (1 mg/kg)): 0.211 ± 0.0228 L/h/kg
- Vd ([2]; iv, i.v. (1 mg/kg), read-out: Vdss): 0.261 ± 0.01 L/kg
- AUC(0-t) ([2]; po, i.g. (10 mg/kg)): 0.227 ± 0.1 µg·h/mL
- bioavailability ([2]; po, i.g. (10 mg/kg)): 0.482 ± 0.21%
- remaining at 6 h, 1000 ng/mL [3]: > 99%
- remaining at 6 h, 1000 ng/mL [4]: > 99%
- IC50 (IL-23R): 6.38 nM
- Peak area% ([5]; 0 h): 95.281%
- Peak area% ([5]; 4.5 h): 94.678%
- Peak area% ([5]; 9.5 h): 96.304%
- Peak area% ([5]; 18 h): 93.661%
